Reference: patent publication US20250388573A1, “FUSED BICYCLIC EGFR INHIBITORS AND METHODS OF USE THEREOF” (Dana-Farber Cancer Institute, Inc., priority 2022, published 2025)
pIC50: −log10 of the molar value.

How the values were obtained:
[1] = tested on: EGFR mutant L858R/T790M Ba/F3 cells; assay: Ba/F3 cell proliferation (Cell Titer Glo), L858R/T790M; assay type: cell-based, murine; settings: Mus musculus, BaF3, 72 hours, read-out: LRTM BaF3 cell IC50
Source text: (§1) The EGFR mutant L858R and L858R/T790M Ba/F3 cells have been previously described (Zhou, W., et al. Nature 462, 2009, 1070-1074). All cell lines were maintained in RPMI 1640 (Cellgro; Mediatech Inc., Herndon, CA) supplemented with 10% FBS, 100 units/mL penicillin, 100 units/mL streptomycin. The EGFR 1941R mutation was introduced via site directed mutagenesis using the Quick Change Site-Directed Mutagenesis kit (Stratagene; La Jolla, CA) according to the manufacturer's instructions. All constructs were confirmed by DNA sequencing. The constructs were shuttled into the retroviral vector JP1540 using the Cre-recombination system (Agilent Technologies, Santa Clara, CA). Ba/F3 cells were then infected with retrovirus per standard protocols, as described previously (Zhou, et al, Nature 2009). Stable clones were obtained by selection in puromycin (2 μg/ml).
(§2) Growth and inhibition of growth was assessed by the Cell Titer Glo assay (Promega, Madison, WI) and was performed according to the manufacturer's instructions. The Cell Titer Glo assay is a luminescence-based method used to determine the number of viable cells based on quantitation of the ATP present, which is directly proportional to the amount of metabolically active cells present. Ba/F3 cells of different EGFR genotypes were exposed to the compounds disclosed herein for 72 hours and the number of cells used per experiment was determined empirically as has been previously established (Zhou, et al., Nature 2009). All experimental points were set up in triplicates in 384-well plates and all experiments were repeated at least three times. […] The curves were fitted using a non-linear regression model with a sigmoidal dose response.

EGFR L858R/T790M = EGFR L858R/T790M (Homo sapiens (Human), UniProt P00533, L858R/T790M); assay: HTRF-based EGFR biochemical assay, L858R/T790M; settings: L858R/T790M 0.02 nM enzyme, 100 μM ATP; read-out: LRTM enzyme IC50
Procedure: (§3) EGFR biochemical activity measurements were carried out using the homogeneous time-resolved fluorescence (HTRF) assay (Cisbio). Inhibitors and DMSO normalizations were first dispensed to empty black low-volume 384-well plates (Corning) with D300 digital liquid dispenser (HP). All reactions were carried out at room temperature and solutions were added to plates with a Multidrop Combi Reagent Dispenser (ThermoFisher). The reaction mixture (10 µL final volume) contained 1 μM tyrosine kinase peptide-biotin substrate and mutant EGFR in a reaction buffer (50 mM HEPES pH 7.0, 5 mM MgCl2, 1 mM MnCl2, 0.01% BSA, 2 mM TCEP, 0.1 mM NaVO4). Enzyme concentrations were adjusted to accommodate varying kinase activities (L858R 0.1 nM, L858R/T790M 0.02 nM). Enzyme reaction solution (2× concentrations, 5 μL) was added to 384-well plates containing compounds and incubated for 30 mins. Enzyme reactions were initiated with the addition of 5 μL of ATP to a final concentration of 100 μM and reacted for 20 mins. Reactions were quenched with the addition of 10 μL of phospho-tyrosine antibody-Europium (III) cryptate (1-to-180 volume ratio) and Streptavidin-XL665 (46.7 nM) in EDTA-containing detection buffer, then incubated at room temperature for 1 hour, and read with a PHERAstar plate reader (excitation=337 nm, emission=620 nm and 665 nm). IC50 values were determined by inhibition curves (11-point curves from 1.0 μM to 0.130 nM or 23-point curves from 1.0 μM to 0.130 μM) in triplicate with non-linear least squares fit in GraphPad Prism 7.0d.

EGFR L858R = EGFR L858R (Homo sapiens (Human), UniProt P00533, L858R); assay: HTRF-based EGFR biochemical assay, L858R; settings: L858R 0.1 nM enzyme, 100 μM ATP; read-out: LR enzyme IC50
Procedure: as §3

[2] = tested on: EGFR mutant L858R Ba/F3 cells; assay: Ba/F3 cell proliferation (Cell Titer Glo), L858R; assay type: cell-based, murine; settings: Mus musculus, BaF3, 72 hours, read-out: LR BaF3 cell IC50
Source text: as §1, §2

Sequence of EGFR L858R (P00533 25-1210 L858R): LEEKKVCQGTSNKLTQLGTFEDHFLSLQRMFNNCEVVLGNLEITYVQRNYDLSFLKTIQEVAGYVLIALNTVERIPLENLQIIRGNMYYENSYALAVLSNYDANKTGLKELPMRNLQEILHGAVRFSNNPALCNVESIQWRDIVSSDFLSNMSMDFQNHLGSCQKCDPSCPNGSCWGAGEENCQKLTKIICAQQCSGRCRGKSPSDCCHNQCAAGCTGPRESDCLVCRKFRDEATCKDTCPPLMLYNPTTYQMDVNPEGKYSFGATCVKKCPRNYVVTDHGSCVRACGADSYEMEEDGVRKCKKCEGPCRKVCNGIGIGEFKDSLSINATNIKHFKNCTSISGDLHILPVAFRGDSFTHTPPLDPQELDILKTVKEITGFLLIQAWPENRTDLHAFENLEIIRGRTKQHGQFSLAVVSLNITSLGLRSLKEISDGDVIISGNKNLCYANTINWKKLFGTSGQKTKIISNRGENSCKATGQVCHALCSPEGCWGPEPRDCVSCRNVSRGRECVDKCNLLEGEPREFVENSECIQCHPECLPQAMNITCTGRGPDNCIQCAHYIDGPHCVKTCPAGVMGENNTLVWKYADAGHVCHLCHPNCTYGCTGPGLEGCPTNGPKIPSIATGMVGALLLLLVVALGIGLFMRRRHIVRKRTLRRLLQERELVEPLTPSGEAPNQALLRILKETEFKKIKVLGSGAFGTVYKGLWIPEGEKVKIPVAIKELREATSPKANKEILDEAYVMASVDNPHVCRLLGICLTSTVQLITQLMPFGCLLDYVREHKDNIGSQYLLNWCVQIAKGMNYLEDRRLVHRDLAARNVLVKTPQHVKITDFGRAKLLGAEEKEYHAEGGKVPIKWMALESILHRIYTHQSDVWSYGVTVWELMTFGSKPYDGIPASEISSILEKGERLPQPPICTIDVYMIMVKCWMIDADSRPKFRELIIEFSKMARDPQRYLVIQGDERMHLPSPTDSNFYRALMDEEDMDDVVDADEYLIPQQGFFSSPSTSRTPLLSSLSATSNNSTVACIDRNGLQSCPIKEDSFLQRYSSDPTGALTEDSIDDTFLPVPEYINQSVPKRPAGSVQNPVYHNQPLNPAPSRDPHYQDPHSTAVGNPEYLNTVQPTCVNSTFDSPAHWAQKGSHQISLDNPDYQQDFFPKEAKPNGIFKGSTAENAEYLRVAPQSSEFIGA
Sequence of EGFR L858R/T790M (P00533 25-1210 T790M/L858R): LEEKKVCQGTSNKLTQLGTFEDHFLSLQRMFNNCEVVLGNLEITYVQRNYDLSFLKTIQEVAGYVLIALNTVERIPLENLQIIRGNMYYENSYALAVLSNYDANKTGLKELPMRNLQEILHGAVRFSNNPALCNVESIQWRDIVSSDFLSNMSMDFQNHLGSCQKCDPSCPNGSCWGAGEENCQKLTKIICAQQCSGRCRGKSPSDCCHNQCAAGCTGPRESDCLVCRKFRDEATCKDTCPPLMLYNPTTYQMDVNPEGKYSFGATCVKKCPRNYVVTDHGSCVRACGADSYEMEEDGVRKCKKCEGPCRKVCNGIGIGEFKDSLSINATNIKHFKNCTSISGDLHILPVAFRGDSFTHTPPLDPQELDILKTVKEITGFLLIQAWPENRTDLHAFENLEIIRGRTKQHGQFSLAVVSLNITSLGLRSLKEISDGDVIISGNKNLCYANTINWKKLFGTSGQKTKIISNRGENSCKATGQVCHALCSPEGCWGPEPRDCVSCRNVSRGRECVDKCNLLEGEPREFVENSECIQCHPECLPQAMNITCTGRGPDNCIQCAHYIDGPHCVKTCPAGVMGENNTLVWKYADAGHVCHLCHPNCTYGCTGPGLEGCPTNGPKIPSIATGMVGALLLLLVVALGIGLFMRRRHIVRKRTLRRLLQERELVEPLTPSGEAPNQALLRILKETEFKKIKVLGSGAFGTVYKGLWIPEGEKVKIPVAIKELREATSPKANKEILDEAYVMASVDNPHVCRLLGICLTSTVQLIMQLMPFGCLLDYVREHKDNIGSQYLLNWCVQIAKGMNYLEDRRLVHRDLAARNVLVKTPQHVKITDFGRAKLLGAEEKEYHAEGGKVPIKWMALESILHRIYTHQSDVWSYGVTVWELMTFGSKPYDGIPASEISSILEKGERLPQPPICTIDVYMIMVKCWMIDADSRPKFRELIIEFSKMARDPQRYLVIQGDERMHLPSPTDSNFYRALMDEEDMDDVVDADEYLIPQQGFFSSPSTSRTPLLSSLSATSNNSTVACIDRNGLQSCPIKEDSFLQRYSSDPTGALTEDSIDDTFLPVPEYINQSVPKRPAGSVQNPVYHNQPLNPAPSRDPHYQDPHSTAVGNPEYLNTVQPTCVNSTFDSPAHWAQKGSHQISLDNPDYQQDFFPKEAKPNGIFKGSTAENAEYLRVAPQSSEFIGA

| Compound | pIC50 [1] | pIC50 (EGFR L858R/T790M) | pIC50 (EGFR L858R) | pIC50 [2] |
| --- | --- | --- | --- | --- |
| CN1CCN(c2ccc(-c3ccc4c(c3)C(=O)N(C(C(=O)Nc3nccs3)c3cccc(F)c3)CO4)cc2)CC1 (stereo not drawn) [Compound 002, 2-(3-Fluorophenyl)-2-(6-(4-(4-methylpiperazin-1-yl)phenyl)-4-oxo-2H-benzo[e][1,3]oxazin-3 (4H)-yl)-N-(thiazol-2-yl)acetamide] |  | 8.40 | 7.64 |  |
| CN1CCC(c2ccc(-c3ccc4c(c3)OCN(C(C(=O)Nc3nccs3)c3ccccc3)C4=O)cc2)CC1 (stereo not drawn) [Compound 004, 2-(7-(4-(1-Methylpiperidin-4-yl)phenyl)-4-oxo-2H-benzo[e][1,3]oxazin-3(4H)-yl)-2-phenyl-N-(thiazol-2-yl)acetamide] |  | 7.68 | < 7.00 |  |
| CN1CCC(c2ccc(-c3ccc4c(c3F)C(=O)N(C(C(=O)Nc3nccs3)c3ccccc3)CO4)cc2)CC1 (stereo not drawn) [Compound 005, 2-(5-Fluoro-6-(4-(1-methylpiperidin-4-yl)phenyl)-4-oxo-2H-benzo[e][1,3]oxazin-3(4H)-yl)-2-phenyl-N-(thiazol-2-yl)acetamide] | 6.34 | 9.00 | 8.43 | 5.98 |
| CN1CCC(c2ccc(-c3ccc4c(c3)OCN(C(c3nc5ccccc5[nH]3)c3cc(F)ccc3O)C4=O)cc2)CC1 (stereo not drawn) [Compound 006, 3-((1H-Benzo[d]imidazol-2-yl) (5-fluoro-2-hydroxyphenyl)methyl)-7-(4-(1-methylpiperidin-4-yl)phenyl)-2,3-dihydro-4H-benzo[e][1,3]oxazin-4-one] | 6.06 | 9.05 | 8.44 | 5.81 |

Stronger by pIC50 (EGFR L858R/T790M), values ahead:

| pIC50 [1] | pIC50 (EGFR L858R/T790M) | pIC50 (EGFR L858R) | pIC50 [2] | Compound |
| --- | --- | --- | --- | --- |
| 6.34 | 9.10 | 7.64 | 5.90 | CN1CCC(c2ccc(-c3ccc4c(c3)C(=O)N(C(C(=O)Nc3nccs3)c3ccccc3)CO4)cc2)CC1 (stereo not drawn) [Compound 003, 2-(6-(4-(1-Methylpiperidin-4-yl)phenyl)-4-oxo-2H-benzo[e][1,3]oxazin-3(4H)-yl)-2-phenyl-N-(thiazol-2-yl)acetamide] |
| 6.66 | 9.15 | 8.72 | 6.33 | CN1CCC(c2ccc(-c3ccc4c(c3)C(=O)N(C(c3nc5ccccc5[nH]3)c3cc(F)ccc3O)CO4)cc2)CC1 (stereo not drawn) [Compound 007, 3-((1H-Benzo[d]imidazol-2-yl) (5-fluoro-2-hydroxyphenyl)methyl)-6-(4-(1-methylpiperidin-4-yl)phenyl)-2,3-dihydro-4H-benzo[e][1,3]oxazin-4-one 2,2,2-trifluoroacetate] |
| 6.29 | 9.40 | 8.55 | 5.83 | CN1CCC(c2ccc(-c3ccc4c(c3)C(=O)N(C(C(=O)Nc3nccs3)c3cccc(F)c3)CO4)cc2)CC1 (stereo not drawn) [Compound 001, 2-(3-Fluorophenyl)-2-(6-(4-(1-methylpiperidin-4-yl)phenyl)-4-oxo-2H-benzo[e][1,3]oxazin-3 (4H)-yl)-N-(thiazol-2-yl)acetamide] |
